Laboratory results published in paper PMC10107326 (Angewandte Chemie (International Ed. in English), 2022).
No end group written: not given here.

Tests used:
HepG2 = experiment: Cytotoxicity against HepG2; assay type: cell-based; settings: HepG2 human cell line
large panel of pathogens = settings: pure DD; cited from earlier work

Substance | IC50 (HepG2) [µg/mL] | decrease in activity when comparing DA and DD, fold (large panel of pathogens) [fold]
D32: engineered darobactin, core peptide WNWCKRW, cysteine disulfide-bonded to L-cysteine and lactic acid (not fully specified; also: Cys4 disulfide-bonded to L-cysteine, lactic acid attached, position not given here) | > 37 | –
WNWTRSF (also: bicyclic or more (positions not given here)) [DD] | – | 16
